From article PMC6458995, “MAP4K4 Inhibition Promotes Survival of Human Stem Cell-Derived Cardiomyocytes and Reduces Infarct Size In Vivo” (Cell Stem Cell, 2019)

What was measured:
[1] = IV PK (plasma concentrations after intravenous administration); format: in vivo, mice; conditions: IV PK (1 mg kg^−1); for Cmax / Vd / clearance / half-life: mouse, mice, plasma
iCell cardiomyocytes = assay: CellTiter-Glo protection from 400 μM H2O2; format: cell-based; conditions: Homo sapiens, Cardiomyocyte, read-out: EC50 in iCell cardiomyocytes (protecting hiPSC-CMs)
Method: iCell cardiomyocytes were thawed, transferred to Plating Medium, counted using a Vi-CELL XR cell viability analyzer (Beckman Coulter), and seeded into 24-well plates for RNA collection (60,000 cells well^-1; Greiner) or μClear half-area 96-well plates for gene silencing (10,000 cells well^-1; Greiner). Plates were coated with 10 μg ml^-1 collagen type I (BD Biosciences). Cells were cultured in iCell Cardiomyocytes Plating Medium for 2 d and in Maintenance Medium thereafter. For compound dose-response comparisons, the cells were deposited in Plating Medium at 10,000 cells well^-1 in 0.1% (w/v) gelatin-coated 384-well white Greiner plates and were cultured as above for 8 d before treatment.
For cell-based dose-response experiments, MAP4K4 inhibitors were prepared in 96-well polypropylene plates as serial dilutions in DMSO of 10 mM stock solutions. […]
Assay plates were removed from the incubator, allowed to reach room temperature, inoculated with 20 μl well^-1 CTG reagent (Promega), and gently agitated for 30 min. […] Luminescence due to ATP, proportional to cell number, was captured on a PHERAstar Plus microplate reader (BMG Labtech). […]

MLK1/MAP3K9 = MLK1/MAP3K9 (Homo sapiens, UniProt P80192); assay: HTRF Transcreener ADP kinase assay; format: biochemical; conditions: for IC50: HTRF Transcreener ADP assay
MLK1/MAP3K9, sequence (P80192 whole entry): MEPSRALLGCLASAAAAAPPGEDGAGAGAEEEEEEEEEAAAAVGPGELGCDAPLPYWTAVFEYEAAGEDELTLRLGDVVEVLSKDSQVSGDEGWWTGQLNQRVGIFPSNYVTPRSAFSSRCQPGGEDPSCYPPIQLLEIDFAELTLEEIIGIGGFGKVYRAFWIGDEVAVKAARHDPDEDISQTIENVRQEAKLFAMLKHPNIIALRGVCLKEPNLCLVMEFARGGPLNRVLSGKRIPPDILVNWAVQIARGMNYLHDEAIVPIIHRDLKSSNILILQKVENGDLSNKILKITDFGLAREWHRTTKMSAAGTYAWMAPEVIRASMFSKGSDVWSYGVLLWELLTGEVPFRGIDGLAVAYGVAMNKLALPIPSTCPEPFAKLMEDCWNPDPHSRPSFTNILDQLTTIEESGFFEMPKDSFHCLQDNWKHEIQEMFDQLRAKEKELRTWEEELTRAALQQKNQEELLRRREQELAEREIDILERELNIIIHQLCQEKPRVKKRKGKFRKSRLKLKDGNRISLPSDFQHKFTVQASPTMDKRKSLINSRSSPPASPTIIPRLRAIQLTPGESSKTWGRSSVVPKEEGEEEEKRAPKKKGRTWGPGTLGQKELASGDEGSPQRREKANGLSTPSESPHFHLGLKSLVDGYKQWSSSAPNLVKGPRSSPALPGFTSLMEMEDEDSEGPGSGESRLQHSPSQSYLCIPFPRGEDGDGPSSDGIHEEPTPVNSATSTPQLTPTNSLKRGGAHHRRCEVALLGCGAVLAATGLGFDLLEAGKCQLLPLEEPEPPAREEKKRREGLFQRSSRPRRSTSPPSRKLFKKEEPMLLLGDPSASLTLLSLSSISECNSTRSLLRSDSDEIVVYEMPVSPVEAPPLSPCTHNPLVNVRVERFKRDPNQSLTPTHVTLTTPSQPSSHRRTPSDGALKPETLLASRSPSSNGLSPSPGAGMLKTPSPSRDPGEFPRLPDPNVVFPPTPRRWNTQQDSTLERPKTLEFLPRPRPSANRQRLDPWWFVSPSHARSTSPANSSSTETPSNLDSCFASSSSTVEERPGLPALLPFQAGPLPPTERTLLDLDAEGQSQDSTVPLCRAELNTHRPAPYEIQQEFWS
Method: (§1) MAP4K4 kinase activity was monitored using the CisBio HTRF Transcreener ADP assay, a competitive immunoassay with a reproducible Z’ > 0.6. In the detection step, endogenous ADP and d2-labeled ADP compete for binding an anti-ADP monoclonal antibody labeled with Eu^3+ cryptate. A ratiometric fluorescent readout is used at 665 and 620 nm. […] Assays were run in Greiner low volume plates with a final reaction volume of 10 μl. Percent inhibition was calculated from 100% activity of MAP4K4 (DMSO only) and 0% activity (no enzyme added). Data were either reported as % inhibition at a single dose or as pIC50 values derived from dose response curves (pIC50 = -log[IC50]).
(§2) Kinase selectivity profiling was performed by the International Centre for Kinase Profiling, MRC Protein Phosphorylation and Ubiquitylation Unit (141 kinases; Premier Screen, http://www.kinase-screen.mrc.ac.uk), using a [γ-^33P]ATP filter binding assay ([Bain et al., 2007]). Compounds were screened at 1 μM. For key hits, pIC50 values were then determined by HTRF as above. More complete kinome profiling was performed by Reaction Biology (376 kinases). Stability in mouse and human liver microsomes was determined by Cyprotex.

FLT3 = FLT3 (Homo sapiens, UniProt P36888); assay: HTRF Transcreener ADP kinase assay; format: biochemical
FLT3, sequence (P36888 27-993): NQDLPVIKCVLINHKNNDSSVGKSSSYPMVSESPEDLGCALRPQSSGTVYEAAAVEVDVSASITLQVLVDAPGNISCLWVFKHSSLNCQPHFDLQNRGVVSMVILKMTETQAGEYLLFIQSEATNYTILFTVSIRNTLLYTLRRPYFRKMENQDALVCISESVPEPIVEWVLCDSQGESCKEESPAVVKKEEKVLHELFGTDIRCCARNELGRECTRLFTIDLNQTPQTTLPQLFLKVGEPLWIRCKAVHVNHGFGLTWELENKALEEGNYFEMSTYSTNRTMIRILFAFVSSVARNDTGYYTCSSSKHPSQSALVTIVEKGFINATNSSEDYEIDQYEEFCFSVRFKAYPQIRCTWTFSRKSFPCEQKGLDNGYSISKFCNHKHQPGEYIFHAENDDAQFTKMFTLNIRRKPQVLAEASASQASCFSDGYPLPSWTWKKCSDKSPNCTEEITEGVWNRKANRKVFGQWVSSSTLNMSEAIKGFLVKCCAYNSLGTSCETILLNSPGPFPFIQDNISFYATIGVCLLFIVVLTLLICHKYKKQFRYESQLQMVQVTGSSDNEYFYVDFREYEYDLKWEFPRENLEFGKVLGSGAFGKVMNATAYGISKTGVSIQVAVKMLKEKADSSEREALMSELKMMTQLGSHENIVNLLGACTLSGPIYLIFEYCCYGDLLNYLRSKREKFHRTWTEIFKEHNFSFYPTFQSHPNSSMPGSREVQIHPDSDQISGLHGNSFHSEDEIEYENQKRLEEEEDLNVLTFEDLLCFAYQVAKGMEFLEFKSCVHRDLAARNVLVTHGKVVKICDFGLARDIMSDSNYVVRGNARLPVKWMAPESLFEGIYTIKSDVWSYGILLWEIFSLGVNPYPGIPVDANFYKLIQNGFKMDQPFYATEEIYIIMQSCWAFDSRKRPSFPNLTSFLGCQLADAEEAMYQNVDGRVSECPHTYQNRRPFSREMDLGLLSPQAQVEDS
Method: as §1, §2

vCor.4U cardiomyocytes [2] = assay: Human cardiac troponin I release (AlphaLISA) after oxidative stress; format: cell-based; conditions: 10 μM compound, up to 200 μM H2O2 or 45 μM menadione
Method: (§3) For cell-based dose-response experiments, MAP4K4 inhibitors were prepared in 96-well polypropylene plates as serial dilutions in DMSO of 10 mM stock solutions. To a sterile 96-well intermediate plate, 1 μl of each well was added to 99 μl of medium, the samples were mixed, and 5 μl well^-1 from the intermediate plate were transferred to the cultured cells (final concentration, 0.1% DMSO; final top concentration of inhibitor, 10 μM). Assay plates were gently centrifuged then incubated for 1 hr at 37°C. The death triggers menadione, H2O2 and doxorubicin were prepared fresh on the day of treatment at 10x the final concentrations and 5 μl well^-1 were added as appropriate. Assay plates were gently centrifuged and then incubated at 37°C for the duration of treatment.
Aliquots of medium collected after cells’ treatment with death signals and MAP4K4 inhibitors were incubated at room temperature with AlphaLISA human cardiac troponin I detection reagents (PerkinElmer): sequentially, anti-Troponin I acceptor beads for 1 hr, biotinylated antibody to troponin I for 1hr, and streptavidin (SA)-coated donor beads for 30 min. The AlphaLISA signal was acquired using the Pherastar Plus plate reader. All detection reagents were diluted in 1X AlphaLISA Immunoassay Buffer and a serially diluted analyte standard was used to quantitate the concentration of human cardiac troponin I (pg ml^-1).

vCor.4U cardiomyocytes [3] = assay: CellTiter-Glo viability after oxidative stress (H2O2 or menadione); format: cell-based, human; conditions: for protection from death signal (CellTiter-Glo): vCor.4U, 10 μM compound, up to 200 μM H2O2 or 45 μM menadione
Method: vCor.4U cardiomyocytes were cultured, except where noted, on white (viability) or black (FLIPR) clear-bottom 384-well plates, treated for 1 hr with […] fibronectin (Sigma-Aldrich). To minimize batch to batch variation, thawed cells first were transferred from cryo-vials into sterile 250 mL flasks containing pre-warmed vCor.4U maintenance medium, for 3-5 d. The cells were then plated at 1000 well^-1 for viability assays or 5000 cells well^-1 for FLIPR experiments, all in 40 μl well^-1 of the maintenance medium. Cells were cultured in Axiogenesis complete medium followed by incomplete medium, were subjected to oxidative stress ± test compounds on day 3, and were assayed on day 4 (Figures 4D and 4E). Alternatively, complete medium was replaced on day 2 of culture with 40 μl of DMEM high Glucose (no FCS or pyruvate), followed by removal and replacement of 20 μl every 2 d for 10 d (Figures 4A–4C).
H2O2, menadione (Sigma-Aldrich), doxorubicin (Calbiochem), and C2-ceramide (N-acetyl-D-sphingosine) were used at the indicated concentrations. MAP4K4 inhibitors were serially diluted in DMSO, transferred to an intermediate plate using assay medium as a diluting agent, and added at a final concentration of 0.1% DMSO. MAP4K4 inhibitors were added to cultured cardiomyocytes 1 hr before the cell death inducers, except where noted, and remained present for the duration of the experiment.
as §3
Assay plates were removed from the incubator, allowed to reach room temperature, inoculated with 20 μl well^-1 CTG reagent (Promega), and gently agitated for 30 min. Prior to adding CTG, 2 μl well^-1 of the culture medium was removed and placed into a white 384-well low volume plate for measurement of cardiac troponin release by AlphaLISA (below). Luminescence due to ATP, proportional to cell number, was captured on a PHERAstar Plus microplate reader (BMG Labtech). Normalized values were plotted against the log concentration of death signal or inhibitor, and a 4-parameter fit was used to identify IC50 and EC50, respectively.

Compound: Oc1ncnc2c1c(-c1ccccc1)cn2-c1ccccc1 [F1386-0303, 5,7-diphenyl-7H-pyrrolo[2,3-d]pyrimidin-4-ol]
- Cmax [1]: 3260 nM
- Vd [1]: 1.05 L/kg
- clearance [1]: 88.8 mL/min/kg
- half-life [1]: 6 min
- EC50 (iCell cardiomyocytes): 5000 nM
- IC50 (MLK1/MAP3K9; MLK1/MAP3K9): 525 nM
- IC50 (FLT3; HTRF Transcreener ADP assay): 2190 nM
- protection from death signal (human cardiac troponin release) (vCor.4U cardiomyocytes [2]): virtually complete
- protection from death signal (CellTiter-Glo) (vCor.4U cardiomyocytes [3]): virtually complete

Compound: COCCOc1ccc(-c2cn(-c3ccccc3)c3nc[nH]c(=O)c23)cc1 [DMX-5804, 5-[4-(2-methoxy-ethoxy)-phenyl]-7-phenyl-3,7-dihydro-pyrrolo[2,3-d]pyrimidin-4-one]
- Cmax [1]: 1590 nM
- Vd [1]: 1.22 L/kg
- clearance [1]: 41.7 mL/min/kg
- half-life [1]: 36 min
- Cl, DMX-5804 versus F1386-0303 ([1]; ratio): 0.47
- Cmax, DMX-5804 versus F1386-0303 ([1]; ratio): 0.49
- Vd, DMX-5804 versus F1386-0303 ([1]; ratio): 1.16
- t1/2, DMX-5804 versus F1386-0303 ([1]; ratio): 6.00
- EC50 (iCell cardiomyocytes): 500 nM
- IC50 (MLK1/MAP3K9; MLK1/MAP3K9): 64.6 nM
- Fold Selectivity (MLK1/MAP3K9; MLK1/MAP3K9 versus MAP4K4): 23
- DMX-5804 vs F1386-0303 (MLK1/MAP3K9; ratio of fold selectivity, MLK1/MAP3K9): 1.53
- DMX-5804 vs F1386-0303 (FLT3; ratio of fold selectivity): 18.22
- protection from death signal (human cardiac troponin release) (vCor.4U cardiomyocytes [2]): substantiated
- protection if given 1 h after oxidative stress (vCor.4U cardiomyocytes [3]; 400 μM H2O2, CellTiter-Glo): partial protection
- protection from death signal (CellTiter-Glo) (vCor.4U cardiomyocytes [3]): substantiated
